In PubChem BioAssay AID256 (DTP/NCI, 2004):
Values joined by “and” are separate entries in the source; they are usually repeats but may differ in a detail not shown here. Equal values may be shown once. Toxic doses and inconclusive results are not listed. The calls were made as follows: active = survival T/C of 150% or more; inactive = T/C below 125% in these data.

System: CD2F1 mice, L1210 leukemia ip, survival T/C
Assay: NCI In Vivo Anticancer Drug Screen. Data for tumor model L1210 Leukemia (intraperitoneal) in CD2F1 (CDF1) mice
Settings: higher = longer survival
How it was run: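 Mice carrying a transplanted tumor received test compound or vehicle alone. The value is the measurement in the treated group divided by that in the vehicle-treated control group.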

[1] = endpoint: mean survival time, dose: 100.0 mg/kg/injection, schedule: Q01DX009 (ip), vehicle: saline with Tween-80
[2] = endpoint: mean survival time, dose: 200.0 mg/kg/injection, schedule: Q01DX009 (ip), vehicle: saline with Tween-80
[3] = endpoint: mean survival time, dose: 400.0 mg/kg/injection, schedule: Q01DX009 (ip), vehicle: saline with Tween-80
[4] = endpoint: mean survival time, dose: 100.0 mg/kg/injection, schedule: Q01DX001 (ip), vehicle: saline with Tween-80
[5] = endpoint: mean survival time, dose: 200.0 mg/kg/injection, schedule: Q01DX001 (ip), vehicle: saline with Tween-80
[6] = endpoint: mean survival time, dose: 400.0 mg/kg/injection, schedule: Q01DX001 (ip), vehicle: saline with Tween-80
[7] = endpoint: mean survival time, dose: 100.0 mg/kg/injection, schedule: Q04DX002 (ip), vehicle: saline
[8] = endpoint: mean survival time, dose: 200.0 mg/kg/injection, schedule: Q04DX002 (ip), vehicle: saline
[9] = endpoint: mean survival time, dose: 400.0 mg/kg/injection, schedule: Q04DX002 (ip), vehicle: saline
[10] = endpoint: mean survival time, dose: 50.0 mg/kg/injection, schedule: Q01DX001 (ip), vehicle: carboxymethylcellulose (CMC)
[11] = endpoint: mean survival time, dose: 100.0 mg/kg/injection, schedule: Q01DX001 (ip), vehicle: carboxymethylcellulose (CMC)
[12] = endpoint: mean survival time, dose: 200.0 mg/kg/injection, schedule: Q01DX001 (ip), vehicle: carboxymethylcellulose (CMC)
[13] = endpoint: mean survival time, dose: 400.0 mg/kg/injection, schedule: Q01DX001 (ip), vehicle: carboxymethylcellulose (CMC)

Measured: T/C

CCOC(=O)NC(C)(C)CN(C(=O)OCC)c1ccccc1
inactive: [1] 98 % of control | [2] 124 % of control | [3] 95 % of control

CS(=O)(=O)c1nnc(-c2ccccc2)s1
inactive: endpoint: mean survival time, dose: 100.0 mg/kg/injection, schedule: Q04DX003 (ip), vehicle: Klucel (hydroxypropylcellulose) (HPC) 90 % of control | endpoint: mean survival time, dose: 200.0 mg/kg/injection, schedule: Q04DX003 (ip), vehicle: Klucel (hydroxypropylcellulose) (HPC) 90 % of control

c1ccc(C(c2ccccc2)[n+]2ccccc2)cc1
inactive: endpoint: mean survival time, dose: 5.0 mg/kg/injection, schedule: Q01DX009 (ip), vehicle: saline 98 % of control | endpoint: mean survival time, dose: 5.0 mg/kg/injection, schedule: Q04DX003 (ip), vehicle: saline 104 % of control | endpoint: mean survival time, dose: 10.0 mg/kg/injection, schedule: Q01DX009 (ip), vehicle: saline 102 % of control | endpoint: mean survival time, dose: 10.0 mg/kg/injection, schedule: Q04DX003 (ip), vehicle: saline 103 % of control | endpoint: mean survival time, dose: 20.0 mg/kg/injection, schedule: Q04DX003 (ip), vehicle: saline 109 % of control

COC1OC2COc3ccccc3OC2C(NC(=O)Oc2ccccc2)C1O (stereo not given)
inactive: [4] 94 % of control | [5] 94 % of control | [6] 91 % of control

CCOCC(C)(CO)CC(C)CO (stereo not given)
inactive: endpoint: mean survival time, dose: 100.0 mg/kg/injection, schedule: Q01DX001 (ip), vehicle: saline 101 % of control | endpoint: mean survival time, dose: 200.0 mg/kg/injection, schedule: Q01DX001 (ip), vehicle: saline 104 % of control | endpoint: mean survival time, dose: 400.0 mg/kg/injection, schedule: Q01DX001 (ip), vehicle: saline 103 % of control

OCC1OC(n2cnc3c(Cl)ncnc32)C(O)C1O (stereo not given)
inactive: endpoint: mean survival time, dose: 12.5 mg/kg/injection, schedule: Q01DX009 (ip), vehicle: saline 86 % of control | endpoint: mean survival time, dose: 25.0 mg/kg/injection, schedule: Q01DX009 (ip), vehicle: saline 93 % of control | endpoint: mean survival time, dose: 50.0 mg/kg/injection, schedule: Q01DX009 (ip), vehicle: saline 93 % of control | endpoint: mean survival time, dose: 62.0 mg/kg/injection, schedule: Q01DX Z (ip), vehicle: carboxymethylcellulose (CMC) 97 % of control | endpoint: mean survival time, dose: 100.0 mg/kg/injection, schedule: Q01DX009 (ip), vehicle: saline 98 % of control | endpoint: mean survival time, dose: 125.0 mg/kg/injection, schedule: Q01DX Z (ip), vehicle: carboxymethylcellulose (CMC) 102 % of control | endpoint: mean survival time, dose: 200.0 mg/kg/injection, schedule: Q01DX009 (ip), vehicle: saline 92 % of control | endpoint: mean survival time, dose: 250.0 mg/kg/injection, schedule: Q01DX Z (ip), vehicle: carboxymethylcellulose (CMC) 100 % of control | endpoint: mean survival time, dose: 400.0 mg/kg/injection, schedule: Q01DX009 (ip), vehicle: saline 98 % of control | endpoint: mean survival time, dose: 500.0 mg/kg/injection, schedule: Q01DX Z (ip), vehicle: carboxymethylcellulose (CMC) 96 % of control | endpoint: median survival time, dose: 62.5 mg/kg/injection, schedule: Q01DX009 (ip), vehicle: saline 94 % of control and 100 % of control | endpoint: median survival time, dose: 125.0 mg/kg/injection, schedule: Q01DX009 (ip), vehicle: saline 100 % of control | endpoint: median survival time, dose: 250.0 mg/kg/injection, schedule: Q01DX009 (ip), vehicle: saline 88 % of control and 100 % of control | endpoint: median survival time, dose: 500.0 mg/kg/injection, schedule: Q01DX009 (ip), vehicle: saline 88 % of control

CCOP(=O)(OCC)c1ccccc1
inactive: [7] 96 % of control | [8] 96 % of control | [9] 112 % of control

O=c1[nH]c2cc(Br)ccc2c2ccc(Br)cc12
inactive: [10] 95 % of control | [11] 98 % of control | [12] 101 % of control | [13] 104 % of control

ON=C1c2cc(Br)ccc2-c2ccc(Br)cc21
inactive: [10] 104 % of control | [11] 102 % of control | [12] 98 % of control | [13] 102 % of control

CNc1nc(-c2ccncc2)nc(N(C)C)n1
inactive: endpoint: mean survival time, dose: 100.0 mg/kg/injection, schedule: Q04DX002 (ip), vehicle: saline with Tween-80 96 % of control | endpoint: mean survival time, dose: 200.0 mg/kg/injection, schedule: Q04DX002 (ip), vehicle: saline with Tween-80 88 % of control

NCC(Cc1ccc(O)cc1)P(=O)(O)O (stereo not given)
inactive: [1] 102 % of control | [2] 105 % of control | [3] 93 % of control

CC(=O)NC1C=C(C)C(=O)O1 (stereo not given)
inactive: [7] 102 % of control | [8] 91 % of control | [9] 94 % of control

CC(=O)OCC1OC(OC2C(COC(C)=O)OC(Sc3ccc(C)cc3)C(OC(C)=O)C2OC(C)=O)C(OC(C)=O)C(OC(C)=O)C1OC(C)=O (stereo not given)
inactive: endpoint: mean survival time, dose: 100.0 mg/kg/injection, schedule: Q04DX003 (ip), vehicle: saline with Tween-80 97 % of control | endpoint: mean survival time, dose: 200.0 mg/kg/injection, schedule: Q04DX003 (ip), vehicle: saline with Tween-80 91 % of control | endpoint: mean survival time, dose: 400.0 mg/kg/injection, schedule: Q04DX003 (ip), vehicle: saline with Tween-80 94 % of control

CC1=C/C(=N/Nc2ccc([N+](=O)[O-])cc2[N+](=O)[O-])CC(C)(C)C1
inactive: [4] 92 % of control | [5] 90 % of control | [6] 95 % of control
